Broadly, the Ki is the dissociation constant of the complex between target and ligand, obtained from inhibition or displacement.

Among the data in US10533010B2, “Substituted indole Mcl-1 inhibitors” (Vanderbilt University, priority 2014, dated 2020) are Ki values, retold here.

For the first test, the target named is recombinant Mcl-1 (residues 172-327) (Homo sapiens (Human), UniProt Q07820). Kind of test: Fluorescence polarization anisotropy competition assay (FITC-Bak or FITC-Bim BH3 peptide) with Mcl-1. The class given is binding. As to conditions: Table 2; Ki bins given in nM; FITC-Bak or FITC-Bim peptide competition; Ki converted from IC50; read-out: Ki for Inhibition of Mcl-1. (In general: Polarisation of emitted light reports the rotation of a fluorescent probe.)
recombinant Mcl-1 (residues 172-327), sequence (Q07820 172-327): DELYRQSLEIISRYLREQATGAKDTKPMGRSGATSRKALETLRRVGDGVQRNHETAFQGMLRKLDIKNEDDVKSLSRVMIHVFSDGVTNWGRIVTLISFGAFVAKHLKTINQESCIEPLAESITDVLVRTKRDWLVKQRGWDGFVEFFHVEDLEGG
With `Cc1cc(OCCCc2c3n(c4c(-c5c(C)nn(C)c5C)c(Cl)ccc24)CCCN(c2ccc(C(=O)O)c(F)c2)C3=O)cc(C)c1Cl` [I-94, 4-(8-chloro-11-(3-(4-chloro-3,5-dimethylphenoxy)propyl)-1-oxo-7-(1,3,5-trimethyl-1H-pyrazol-4-yl)-4,5-dihydro-1H-[1,4]diazepino[1,2-a]indol-2(3H)-yl)-2-fluorobenzoic acid], the Ki is less than 50 nM.
For `Cc1cc(OCCCc2c(C(=O)N(C)Cc3ccc(C(=O)O)o3)n(C)c3c(-c4c(C)nn(C)c4C)cccc23)cc(C)c1Cl` [I-269, 5-((3-(3-(4-chloro-3,5-dimethylphenoxy)propyl)-N,1-dimethyl-7-(1,3,5-trimethyl-1H-pyrazol-4-yl)-1H-indole-2-carboxamido)methyl)furan-2-carboxylic acid], the Ki was 101 to 299 nM.
The same measure, in the same setting: as for `Cc1cc(OCCCc2c(C(=O)N3CCC[C@H]3C(=O)O)[nH]c3c(-c4c(C)nn(C)c4C)c(Cl)ccc23)cc(C)c1Cl` [I-337, (6-chloro-3-(3-(4-chloro-3,5-dimethylphenoxy)propyl)-7-(1,3,5-trimethyl-1H-pyrazol-4-yl)-1H-indole-2-carbonyl)-L-proline], the figure is less than 50 nM; as for `Cc1nn(C)c(C)c1-c1cccc2c(CCCOc3cccc4ccccc34)c(C(=O)Nc3cccc(C(=O)O)c3)[nH]c12` [I-193, 3-(3-(3-(naphthalen-1-yloxy)propyl)-7-(1,3,5-trimethyl-1H-pyrazol-4-yl)-1H-indole-2-carboxamido)benzoic acid], less than 50 nM.
In the case of `Cc1cc(OCCCc2c3n(c4c(-c5c(C)nn(C)c5C)c(Cl)ccc24)CCCN(c2ccnc4c(C(=O)O)cccc24)C3=O)cc(C)c1Cl` [I-104, 4-(8-chloro-11-(3-(4-chloro-3,5-dimethylphenoxy)propyl)-1-oxo-7-(1,3,5-trimethyl-1H-pyrazol-4-yl)-4,5-dihydro-1H-[1,4]diazepino[1,2-a]indol-2(3H)-yl)quinoline-8-carboxylic acid], the inhibitory constant (Ki) is less than 50 nM.
Same read-out and setting: as for `Cc1cc(OCCCc2c3n(c4c(-c5c(C)nn(C)c5C)c(Cl)ccc24)CCCN(c2cccc(C(=O)NS(C)(=O)=O)c2)C3=O)cc(C)c1Cl` [I-368, 3-(8-chloro-11-(3-(4-chloro-3,5-dimethylphenoxy)propyl)-1-oxo-7-(1,3,5-trimethyl-1H-pyrazol-4-yl)-4,5-dihydro-H-[1,4]diazepino[1,2-a]indol-2(3H)-yl)-N-(methylsulfonyl)benzamide], the figure is less than 50 nM.
Consider `Cc1cc(OCCCc2c3n(c4c(-c5c(C)nn(C)c5C)c(Cl)ccc24)CCCN(c2cc(C(=O)O)cc(N(C)C)c2)C3=O)cc(C)c1Cl` [I-216, 3-(8-chloro-11-(3-(4-chloro-3,5-dimethylphenoxy)propyl)-1-oxo-7-(1,3,5-trimethyl-1H-pyrazol-4-yl)-4,5-dihydro-1H-[1,4]diazepino[1,2-a]indol-2(3H)-yl)-5-(dimethylamino)benzoic acid], for which the Ki was less than 50 nM.
As for `Cc1cc(OCCCc2c3n(c4c(-c5c(C)nn(C)c5C)c(Cl)ccc24)C[C@@H](C)N(c2ccc(C(=O)O)c4ncccc24)C3=O)cc(C)c1Cl` [I-158, (R)-5-(7-chloro-10-(3-(4-chloro-3,5-dimethylphenoxy)propyl)-3-methyl-1-oxo-6-(1,3,5-trimethyl-1H-pyrazol-4-yl)-3,4-dihydropyrazino[1,2-a]indol-2(1H)-yl)quinoline-8-carboxylic acid], the inhibition constant Ki was less than 50 nM.
Regarding `Cc1cc(OCCCc2c3n(c4c(-c5c(C)nn(C)c5C)c(Cl)ccc24)CCN(c2ccc(C(=O)O)c4ncccc24)C3=O)cc(C)c1Cl` [I-161, 5-(7-chloro-10-(3-(4-chloro-3,5-dimethylphenoxy)propyl)-1-oxo-6-(1,3,5-trimethyl-1H-pyrazol-4-yl)-3,4-dihydropyrazino[1,2-a]indol-2(1H)-yl)quinoline-8-carboxylic acid], the inhibition constant (Ki) was less than 50 nM.
On to `Cc1cc(OCCCc2c3n(c4c(-c5c(C)nn(C)c5C)c(Cl)ccc24)CCCN(c2cc(C(=O)O)cc4c2OCCO4)C3=O)cc(C)c1Cl` [I-364, 8-(8-chloro-11-(3-(4-chloro-3,5-dimethylphenoxy)propyl)-1-oxo-7-(1,3,5-trimethyl-1H-pyrazol-4-yl)-4,5-dihydro-1H-[1,4]diazepino[1,2-a]indol-2(3H)-yl)-2,3-dihydrobenzo[b][1,4]dioxine-6-carboxylic acid], for which the Ki is less than 50 nM.
For the compound `Cc1cc(OCCCc2c(C(=O)NCc3ccc(N4CCCC4)c(C(=O)O)c3)[nH]c3c(-c4c(C)nn(C)c4C)cccc23)cc(C)c1Cl` [I-76, 5-((3-(3-(4-chloro-3,5-dimethylphenoxy)propyl)-7-(1,3,5-trimethyl-1H-pyrazol-4-yl)-1H-indole-2-carboxamido)methyl)-2-(pyrrolidin-1-yl)benzoic acid], the inhibition constant (Ki) lay in the range of 51 to 100 nM.
On the same count and under the same terms, as for `Cc1cc(OCCCc2c(C(=O)NC3CCN(C(=O)C(=O)O)CC3)[nH]c3c(-c4c(C)nn(C)c4C)c(Cl)ccc23)cc(C)c1Cl` [I-321, 2-(4-(6-chloro-3-(3-(4-chloro-3,5-dimethylphenoxy)propyl)-7-(1,3,5-trimethyl-1H-pyrazol-4-yl)-1H-indole-2-carboxamido)piperidin-1-yl)-2-oxoacetic acid], the figure is less than 50 nM.
As for `Cc1cc(OCCCc2c3n(c4c(-c5c(C)nn(C)c5C)c(Cl)ccc24)CCCN(c2ccc(C(=O)NS(=O)(=O)C4CC4)cc2)C3=O)cc(C)c1Cl` [I-361, 4-(8-chloro-11-(3-(4-chloro-3,5-dimethylphenoxy)propyl)-1-oxo-7-(1,3,5-trimethyl-1H-pyrazol-4-yl)-4,5-dihydro-H-[1,4]diazepino[1,2-a]indol-2(3H)-yl)-N-(cyclopropylsulfonyl)benzamide], the Ki was less than 50 nM.
Still for that read-out and setting: under `Cc1cc(OCCCc2c3n(c4c(-c5c(C)nn(C)c5C)c(Cl)ccc24)CCCN(c2cc(C(=O)O)cc4c2c(Br)cn4C)C3=O)cc(C)c1Cl` [I-256, 3-bromo-4-(8-chloro-11-(3-(4-chloro-3,5-dimethylphenoxy)propyl)-1-oxo-7-(1,3,5-trimethyl-1H-pyrazol-4-yl)-4,5-dihydro-1H-[1,4]diazepino[1,2-a]indol-2(3H)-yl)-1-methyl-1H-indole-6-carboxylic acid] stands less than 50 nM; under `Cc1cc(C(=O)O)ccc1N1CCCn2c(c(CCCOc3cc(C)c(Cl)c(C)c3)c3ccc(Cl)c(-c4c(C)nn(C)c4C)c32)C1=O` [I-97, 4-(8-chloro-11-(3-(4-chloro-3,5-dimethylphenoxy)propyl)-1-oxo-7-(1,3,5-trimethyl-1H-pyrazol-4-yl)-4,5-dihydro-1H-[1,4]diazepino[1,2-a]indol-2(3H)-yl)-3-methylbenzoic acid], less than 50 nM.
Same read-out and setting: as for `Cc1cc(OCCCc2c3n(c4c(-c5c(C)nn(C)c5C)c(Cl)ccc24)CCCN(c2ncc(C(=O)O)s2)C3=O)cc(C)c1Cl` [I-358, 2-(8-chloro-11-(3-(4-chloro-3,5-dimethylphenoxy)propyl)-1-oxo-7-(1,3,5-trimethyl-1H-pyrazol-4-yl)-4,5-dihydro-1H-[1,4]diazepino[1,2-a]indol-2(3H)-yl)thiazole-5-carboxylic acid], the figure is less than 50 nM; as for `Cc1cc(OCCCc2c3n(c4c(-c5c(C)nn(C)c5C)c(Cl)ccc24)CCCN(c2cccc4c2ccn4C)C3=O)cc(C)c1Cl` [I-247, 8-chloro-1-(3-(4-chloro-3,5-dimethylphenoxy)propyl)-2-(1-methyl-1H-indol-4-yl)-7-(1,3,5-trimethyl-1H-pyrazol-4-yl)-2,3,4,5-tetrahydro-1H-[1,4]diazepino[1,2-a]indol-1-one], less than 50 nM.
Consider `Cc1cc(OCCCc2c3n(c4c(-c5c(C)nn(C)c5C)c(Cl)ccc24)CCCN(c2cc(F)cc(C(=O)O)c2)C3=O)cc(C)c1Cl` [I-223, 3-(8-chloro-11-(3-(4-chloro-3,5-dimethylphenoxy)propyl)-1-oxo-7-(1,3,5-trimethyl-1H-pyrazol-4-yl)-4,5-dihydro-1H-[1,4]diazepino[1,2-a]indol-2(3H)-yl)-5-fluorobenzoic acid], for which the Ki is less than 50 nM.
Take `Cc1cc(OCCCc2c3n(c4c(-c5c(C)nn(C)c5C)c(Cl)ccc24)CC(C)CN(Cc2ccc(C(=O)O)cn2)C3=O)cc(C)c1Cl` (centres unmarked) [I-134, 6-((8-chloro-11-(3-(4-chloro-3,5-dimethylphenoxy)propyl)-4-methyl-1-oxo-7-(1,3,5-trimethyl-1H-pyrazol-4-yl)-4,5-dihydro-1H-[1,4]diazepino[1,2-a]indol-2(3H)-yl)methyl)nicotinic acid]: the Ki was less than 50 nM.
Still for that read-out and setting: as for `Cc1cc(OCCCc2c(C(=O)NCCC(=O)NS(=O)(=O)c3ccccc3C#N)[nH]c3ccccc23)cc(C)c1Cl` [I-18, 3-(3-(4-chloro-3,5-dimethylphenoxy)propyl)-N-(3-((2-cyanophenyl)sulfonamido)-3-oxopropyl)-1H-indole-2-carboxamide], the figure is 301 to 500 nM; as for `Cc1cc(OCCCc2c(C(=O)Nc3cc(Br)cc(C(=O)O)c3)[nH]c3c(-c4c(C)nn(C)c4C)c(Cl)ccc23)cc(C)c1Cl` [I-217, 3-bromo-5-(6-chloro-3-(3-(4-chloro-3,5-dimethylphenoxy)propyl)-7-(1,3,5-trimethyl-1H-pyrazol-4-yl)-1H-indole-2-carboxamido)benzoic acid], less than 50 nM.
Same read-out and setting: as for `Cc1cc(OCCCc2c(C(=O)NCc3cc(C(=O)O)cc(N4CCN(C(=O)CC(C)C)CC4)n3)[nH]c3c(-c4c(C)nn(C)c4C)c(Cl)ccc23)cc(C)c1Cl` [I-284, 2-((6-chloro-3-(3-(4-chloro-3,5-dimethylphenoxy)propyl)-7-(1,3,5-trimethyl-1H-pyrazol-4-yl)-1H-indole-2-carboxamido)methyl)-6-(4-(3-methylbutanoyl)piperazin-1-yl)isonicotinic acid], the figure is less than 50 nM.

The test is the same for the next values; noted with them: Table 2; Ki bins given in μM; FITC-Bak or FITC-Bim peptide competition; Ki converted from IC50; read-out: Ki for Inhibition of Mcl-1.
As to `Cc1cc(OCCCc2c(C(=O)NCc3ccc(Oc4ccccc4)cc3)[nH]c3ccccc23)cc(C)c1Cl` [I-45, 3-(3-(4-chloro-3,5-dimethylphenoxy)propyl)-N-(4-phenoxybenzyl)-1H-indole-2-carboxamide], the inhibitory constant (Ki) was 10000 to 50000 nM.
